Measured values published in patent US20250144250A1, “PH-SENSITIVE FLUOROPHORES” (The General Hospital Corporation, priority 2022, published 2025).

Tested on: ID8 cells
Test: Inhibition assay of transporters to determine entry mechanism of PH08
Assay type: cell-based, murine
Settings: 0.2 μM PH08
Experimental: FIG. 2 Cellular uptake of pH sensing NIR fluorophores via membrane transporters: In vitro tumor cell uptake of the pH sensing NIR probes under normoxic and hypoxic conditions. Murine cancer cell line ID8 cells were incubated at normoxic or hypoxic conditions (1% O2) for 24 h at 37° C. and then incubated for 30 min in the presence of 0.1 μM NIR probes. (a) Representative fluorescence images of cells are shown. The contrast was normalized across all images. Scale bar=100 μm. (b) Quantitative time-course measurements of the fluorescence intensity in cells. *P<0.05, **P<0.01 by two-way ANOVA followed by Tukey's multiple comparisons test (Normoxia vs. Hypoxia). Error bars show mean #s.d. […] Representative fluorescence images of cells are shown. […] (d) Quantitative measurements of the fluorescence intensity in cells. *P<0.05 by two-way ANOVA followed by Tukey's multiple comparisons test. […]
The organic anion transporting polypeptides (OATPs) is known to mediate the transmembrane uptake of small molecule drugs and include structurally related fluorophores such as the clinically approved indocyanine green (ICG) and tumor-targeting IR-780. […] Next, we determined the contribution of organic cation transporters (OCTs) and organic carnitine (zwitterion) transporters (OCTNs) on the uptake of PH08, which may play roles in the transcellular movement of small organic molecules across epithelial barriers. […]

## CCN1/C(=C/C=C2\CCCC(/C=C/C3=[N+](CC)c4ccccc4C3(C)C)=C2N2CCNCC2)C(C)(C)c2ccccc21 [PH08]
  cellular uptake after treatment with D22, inhibitor of OCTs and OCTNs: did not induce changes in cellular uptake
  cellular uptake after treatment with bromsulphthalein (BSP), OATP inhibitor: significant reduction in cellular uptake
